Earlier results on 2 compounds are cited in patent publication US20090156634A1, “Tropane alkaloids and trigonelline combinations and methods for administering the same” (priority 2007, published 2009).

Structures are written as SMILES. Structures can show the parent of a compound that is named as a salt.

Series [1] relates to rat cultured sensory neurons. As to conditions: attributed to inhibition of potassium channels.
Series [2] relates to central nervous system. The conditions noted are these: orally administered to rats.
Series [3] deals with dendrites and axons. The conditions noted are these: mice models of Alzheimer's disease.
The test system of series [4] is diaphragm. As to conditions: rats, low-dose.

Turning to `C[n+]1cccc(C(=O)[O-])c1` [trigonelline, 3-carboxy-1-methyl-pyridinum inner salt], the “excitability of the rat dorsal gangliae” value in series [1] is on record as “increases the excitability”. For the same compound, the “central nervous system effect” value in series [2] was “central nervous system stimulating effects”. For the same compound, in series [3], the “effect on dendrites and axons” value was “induce regenerative effects in dendrites and axons”.

Consider `NCCc1ccc(O)c(O)c1` [dopamine], for which the “effect on diaphragm fatigue” value in series [4] is reported as “can prevent and/or reverse diaphragm fatigue”.
